# According to US20220220106A1, “QUINOLINE COMPOUNDS AND PHARMACEUTICAL COMPOSITIONS AND USES THEREOF” (Academy of Military Medical Sciences, priority 2019, published 2022):
# What was measured:
# Assay type in all cases: cell-based
# mTORC1 = target: T1, mTORC1 (Homo sapiens, UniProt P42345); test: Western blot, phosphorylation of Thr389 of p70S6K1 in RD cells (mTORC1 inhibition); conditions: 20 μM, 2 hours, Western blot (FIG. 1)
# T1 construct: endogenous in cells; host or cells: RD cells
# Method: (§1) In order to test the inhibitory activity of the synthesized compounds on the two mTOR complexes, the inhibitory activity experiments of mTORC1 and mTORC2 were carried out. Since mTORC1 and mTORC2 exerted their function by activating the phosphorylation of downstream substrates, the inhibitory activity of the compounds on mTORC1 and mTORC2 could be determined by detecting the phosphorylation levels of the Thr389 site of mTORC1 downstream substrate p70S6K1 and the Ser473 site of mTORC2 downstream substrate Akt.
# (§2) Pretreatment of Compound:
# (§3) (1) RD cells were cultured in DMEM medium containing 10% FBS and 1×PS (penicillin and streptomycin were at concentrations 100 IU and 100 μg/mL, respectively) at 37° C. and 5% CO2.
# (§4) (2) The RD cells (5×10^5 cells/2 mL medium) were inoculated into a 6-well plate and incubated at 37° C. and 5% CO2 for 24 hours.
# (§5) (3) The cells were washed once with PBS, and the cells were cultured in serum-free medium without nutrients overnight.
# (§6) (4) Formulation of compounds: […]
# (§7) Preparation of insulin medium: Insulin was diluted in DMEM medium containing 10% FBS and 1×PS so that the final concentration of insulin was 167 nM.
# (§8) Pretreatment of compound to be tested: The compound was dissolved in DMSO so that the concentration of the test compound was 20 mM, and the compound was diluted in 167 nM insulin medium to reach a concentration of 20 μM.
# (§9) Preparation of rapamycin solution: Rapamycin was dissolved in DMSO to a concentration of 10 mM, and the rapamycin was diluted in 167 nM insulin medium to reach a concentration of 20 μM.
# (§10) (5) The serum-free medium in each well was removed.
# (§11) (6) 2 mL of complete medium containing DMSO was added to each well as a control carrier. The final concentration of DMSO was 0.2%.
# (§12) (7) 2 mL of 20 μM rapamycin solution and 20 μM the compound to be tested were added to the designated wells, respectively. The final concentration of DMSO was 0.2%.
# (§13) (8) The cells were incubated for 2 hours at 37° C. and 5% CO2.
# (§14) Protein extraction and concentration determination:
# (§15) (1) The cells were washed once with refrigerated PBS, and then the PBS was discarded.
# (§16) (2) 150 μL of cell extraction buffer (RIPA, […], catalog number: C1053) was transferred into each well to lyse the cells, and then the resulting cell solution were incubated on ice for 30 minutes.
# (§17) (3) Centrifugation was performed at 14000 rpm (13000× g) for 30 minutes at 4° C.
# (§18) (4) The supernatant was transferred into a new eppendorf tube, and the cell lysate was stored at −80° C. before testing.
# (§19) (5) The protein concentration was determined by BCA method.
# (§20) Preparation of Buffer Solutions:
# (§21) (1) 100× Protease inhibitor (Beyotime, catalog number: P1005): 1 mL of redistilled water was added to the protease inhibitor and stirred gently until the solid was completely dissolved.
# (§22) (2) Lysis Buffer: […] of 100× protease inhibitor and 2× phosphatase inhibitor Cocktails PhosSTOP (Beyotime, catalog number: P1082) were added to 100 mL of the cell extract, and stirred gently until it was completely dissolved.
# (§23) (3) Electrophoresis Running Buffer:
# (§24) 10×MOPS buffer: 52.33 g of MOPS, 30.29 g of Tris base, 10 mL of 0.5 mol/L EDTA (pH 8.5) and 5 g of SDS was dissolved in 400 mL of redistilled water, stirred to dissolve, and the pH was adjusted to 7.5, then redistilled water was added again to reach a volume of 500 mL; 1×MOPS: 100 mL of 10×MOPS was diluted with redistilled water to 1000 mL.
# (§25) (4) 1× Transfer Buffer: […] of 10× transfer buffer (144 g of glucine, 30.3 g of trisbase, and distilled water were mixed to reach a volume of 1 L) and 400 mL of methanol were dissolved in 1500 mL of redistilled water, and then the redistilled water was added to reach a volume of 2000 mL. […]
# [1] = tested on: Enterovirus 71 (EV71) H strain; test: In vitro anti-EV71 activity (antiviral activity in RD cells, CellTiter-Glo); conditions: Enterovirus A, 96 h; EV71 H strain, RD cells, 4 days, CellTiter-Glo; read-out: IC50
# Method in brief: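 RD cells infected with 100TCID50 EV71 in DMEM+2% FBS, with compound in 10-point three-fold dilutions, cultured 4 days at 37° C. Cell viability by CellTiter-Glo luminescence; inhibition rate relative to cell control fitted to S-curve for IC50. TD50 derived likewise; SI=TD50/IC50.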
# mTORC2 = target: T2, mTORC2 (Homo sapiens, UniProt P42345); test: Western blot, phosphorylation of Ser473 of Akt in RD cells (mTORC2 inhibition); conditions: 20 μM, 2 hours, Western blot (FIG. 1)
# T2 construct: endogenous in cells; host or cells: RD cells
# Method: as §1, §2, §3, §4, §5, §6, §7, §8, §9, §10, §11, §12, §13, §14, §15, §16, §17, §18, §19, §20, §21, §22, §23, §24, §25
# RD cells = test: Detection of cytotoxicity in RD cells (CellTiter-Glo); conditions: 4 days, CellTiter-Glo, median toxic dose
# Method in brief: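 RD cells (1*10^5/mL) cultured 4 days at 37 °C with 10 compound concentrations from 3-fold dilution of a 400 μM pretreatment solution, final being 0.5 times that. Viability by CellTiter-Glo luminescence versus cell control; TD50 from S-curve fit; SI=TD50/IC50.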
smiles,measurement,setting,value
"CC(C)C(=O)Nc1ccc(-c2ccc3ncc4ccc(=O)n(-c5cccc(C(F)(F)F)c5)c4c3c2)cn1 [HTL-7-07, 9-[3-(2-isobutyrylamino)pyridyl]-2-oxo-1-[3-(trifluoromethyl)phenyl]-1,2-dihydrobenzo[h][1,6]naphthyridine]",p70 phosphorylation expression level,mTORC1,significantly down-regulate
same,IC50,[1],0.38 ± 0.39 µM
same,phosphorylation expression level of Akt,mTORC2,significantly down-regulate
same,TD50,RD cells,0.46 ± 0.03 µM
